The numbers were not newly measured in patent US10328118B2, “High purity oritavancin and method of producing same” (priority 2014, dated 2019), which cites them from elsewhere.

Like-named read-outs stand apart in the source and are kept apart here.

For the compound `CN[C@H](CC(C)C)C(=O)N[C@H]1C(=O)N[C@@H](CC(N)=O)C(=O)N[C@H]2C(=O)N[C@H]3C(=O)N[C@H](C(=O)N[C@H](C(=O)O)c4cc(O)cc(O)c4-c4cc3ccc4O)[C@H](O)c3ccc(c(Cl)c3)Oc3cc2cc(c3O[C@@H]2O[C@H](CO)[C@@H](O)[C@H](O)[C@H]2O[C@H]2C[C@](C)(N)[C@H](O)[C@H](C)O2)Oc2ccc(cc2Cl)[C@H]1O` [vancomycin], in the data set with animal models (animal models), the teratogenicity entry is given as “non-teratogenic”. In addition, in the data set with subjects (rapid infusion into subjects), the ““red man” syndrome (histamine-like response) during infusion” value is reported as “associated with the “red man” syndrome”.
With teicoplanin, the teratogenicity result in the data set on animal models (in vivo) was “non-teratogenic”. Also, in the data set on subjects (in vivo), the ““red man” syndrome (histamine-like response) during infusion” value is reported as “not seen”.
